Laboratory results: patent US20260184706A1, “PHENYLSULFONAMIDE DERIVATIVES, PREPARATION METHOD THEREFOR, AND PHARMACEUTICAL COMPOSITION FOR PREVENTION OR TREATMENT OF CANCER CONTAINING SAME AS ACTIVE INGREDIENT” (Korea Research Institute of Chemical Technology, priority 2022, published 2026)

Legend:
[1] = biological target: recombinant human GCN2 protein (Homo sapiens, UniProt Q9P2K8); test: General control nonderepressible 2 (GCN2) inhibitory capacity, 33P-ATP filter assay; assay type: biochemical; settings: recombinant human GCN2, 70 uM [gamma-33P-ATP], 40 minutes, room temperature
Sequence of recombinant human GCN2 protein (Q9P2K8 whole entry): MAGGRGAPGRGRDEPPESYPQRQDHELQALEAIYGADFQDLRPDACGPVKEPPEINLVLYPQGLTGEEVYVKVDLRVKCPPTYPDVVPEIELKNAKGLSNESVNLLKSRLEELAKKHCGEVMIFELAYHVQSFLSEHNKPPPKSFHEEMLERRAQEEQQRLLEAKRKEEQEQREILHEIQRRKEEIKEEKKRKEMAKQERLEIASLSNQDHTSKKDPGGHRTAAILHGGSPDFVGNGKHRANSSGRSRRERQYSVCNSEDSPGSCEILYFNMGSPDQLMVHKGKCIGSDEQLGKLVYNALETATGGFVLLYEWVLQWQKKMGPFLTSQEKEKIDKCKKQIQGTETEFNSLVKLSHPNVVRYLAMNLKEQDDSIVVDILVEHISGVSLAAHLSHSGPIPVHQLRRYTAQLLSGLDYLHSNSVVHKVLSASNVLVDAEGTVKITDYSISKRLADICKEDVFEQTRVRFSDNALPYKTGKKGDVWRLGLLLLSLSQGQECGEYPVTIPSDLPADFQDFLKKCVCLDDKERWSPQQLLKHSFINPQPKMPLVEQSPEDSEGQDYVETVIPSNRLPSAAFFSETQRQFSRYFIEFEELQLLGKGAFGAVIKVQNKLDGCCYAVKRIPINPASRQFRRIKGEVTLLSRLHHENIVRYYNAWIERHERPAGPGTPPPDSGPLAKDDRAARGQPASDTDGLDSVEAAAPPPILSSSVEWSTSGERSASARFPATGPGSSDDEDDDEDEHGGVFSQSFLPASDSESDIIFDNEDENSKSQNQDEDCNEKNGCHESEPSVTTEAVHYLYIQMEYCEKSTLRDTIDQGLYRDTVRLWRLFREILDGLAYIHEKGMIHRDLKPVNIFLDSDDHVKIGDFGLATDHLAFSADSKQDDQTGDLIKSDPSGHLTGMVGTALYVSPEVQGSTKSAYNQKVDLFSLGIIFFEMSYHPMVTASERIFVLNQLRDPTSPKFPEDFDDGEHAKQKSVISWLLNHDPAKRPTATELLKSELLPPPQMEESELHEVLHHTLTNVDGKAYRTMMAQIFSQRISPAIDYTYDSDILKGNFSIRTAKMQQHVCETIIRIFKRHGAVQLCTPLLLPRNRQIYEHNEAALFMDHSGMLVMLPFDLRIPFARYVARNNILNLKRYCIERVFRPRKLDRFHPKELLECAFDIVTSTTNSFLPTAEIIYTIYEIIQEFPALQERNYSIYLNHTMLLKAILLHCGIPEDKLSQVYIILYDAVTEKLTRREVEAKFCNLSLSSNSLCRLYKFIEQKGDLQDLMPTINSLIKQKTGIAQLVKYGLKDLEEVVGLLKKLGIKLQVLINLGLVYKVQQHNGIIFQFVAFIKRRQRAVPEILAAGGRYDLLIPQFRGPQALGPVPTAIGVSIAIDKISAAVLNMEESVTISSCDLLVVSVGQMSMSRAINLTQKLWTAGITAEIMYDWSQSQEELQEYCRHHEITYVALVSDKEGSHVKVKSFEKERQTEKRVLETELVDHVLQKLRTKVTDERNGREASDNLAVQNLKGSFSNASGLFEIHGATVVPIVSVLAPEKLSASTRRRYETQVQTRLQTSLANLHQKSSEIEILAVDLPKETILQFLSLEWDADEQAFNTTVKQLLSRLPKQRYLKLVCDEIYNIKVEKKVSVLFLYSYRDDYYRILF
Method: <Experimental Example 2> Evaluation of General Control Nonderepressible 2 (GCN2) Inhibitory Capacity
(§1) A recombinant human GCN2 protein was mixed with the compound in a reaction solution (20 mM Tris/HCl pH8.5, 0.2 mM EDTA, 0.1% Tween, 100 mM NaCl, 300 μM RSRSRSRSRSRSRSR, 10 mM Magnesium acetate, 70 uM [gamma-33P-ATP]) and reacted at room temperature for 40 minutes. Then, the reaction was terminated by adding phosphoric acid (0.5%) to the reaction mixture, and 10 ul of the reaction solution was dropped onto a P30 filter. The filter was washed four times in a 0.425% phosphoric acid solution for 4 minutes, then washed once more in methanol, dried, and the GCN2 activity was measured by scintillation counting. […] The compound was diluted by 1/3 from the highest concentration of 1 uM and treated with a total of 9 concentrations to evaluate the degree of inhibition.

[2] = biological target: T1, phosphorylated GCN2 (Homo sapiens, UniProt Q9P2K8); test: Inhibition of phosphorylated GCN2 under amino acid deficiency in HT-1080 cells, Western blot; assay type: cell-based; settings: compound 50 nM, 24 hours; for Phospho-GCN2 inhibition: symbols ◯ / X not defined
T1 construct: endogenous in cells; host or cells: HT-1080
T1 sequence (Q9P2K8 whole entry): as above
Method: <Experimental Example 5> Evaluation of Inhibitory Efficacy of ISR-Related Kinase GCN2 Under Amino Acid Deficiency Condition Using Western Blot
HT-1080 cells, a human fibrosarcoma cell line, were cultured in RPMI-1640 medium supplemented with 10% FBS, penicillin (penicillin; 100 IU/ml), and streptomycin (streptomycin; 100 μg/ml). Cells (1×10^6 cells/ml) were seeded onto 100 mm plates (polypropylene tissue culture plate) and incubated for 24 hours in a 37° C., 5% CO2 incubator before being used for experiments.
The following method was used to achieve amino acid deficiency conditions in cells. After 24 hours of cell culture, the cells were cultured in amino acids and L-glutamine-free RPMI-1640 medium supplemented with 10% FBS, penicillin (100 IU/ml), and streptomycin (100 μg/ml). After 24 hours of cell culture in RPMI-1640 without amino acids and L-glutamine, the compound prepared at a concentration of 50 nM was dispensed onto each plate and cultured for 24 hours in a 37° C., 5% CO2 incubator.
In order to measure the signal transduction inhibitory efficacy of GCN among the ISR-related kinases according to the present invention, the following experiment was performed using SDS-PAGE. The fibrosarcoma cell line HT-1080 cells cultured on plates as described above were washed with PBS after removing the culture medium. After removing PBS, the cells were lysed by adding a radio-immunoprecipitation assay buffer (RIPA buffer) containing 50 mM Tris (pH 7.4), 150 mM NaCl, 1% NP-40, 0.5% sodium deoxycholate, 2 mM sodium fluoride, 2 mM EDTA, 0.1% SDS, and a protease/phosphatase inhibitor cocktail to the plate. After centrifugation at 4° C., 13,000×g for 15 minutes, the protein in the upper layer was collected, and the protein concentration was measured at 562 nm using BCA (bicinchoninc acid) reagent, and the amount of protein in all samples was prepared at 20-50 μg.
After making the total volume the same using the sample buffer and RIPA buffer, it was heated at 97° C. for 5 minutes. Then, electrophoresis was performed on 8% or 12% SDS-PAGE at 80 V for 30 minutes and at 160 V for 1 hour and 30 minutes. After electrophoresis, the SDS-PAGE gel was transferred to an NC membrane (nitrocellulose membrane) at 90 V for 2 hours. The NC membrane was placed in TBST (tris buffer saline tween-20; 20 mM tris, 137 mM sodium chloride, 0.1% tween-20, pH 8.0) containing 5% non-fat skim milk, placed on a shaker, and reacted at room temperature for 1 hour.
Each primary antibody was diluted in TBST containing 5% non-fat skim milk, poured onto the NC membrane, and reacted at 4° C. for 24 hours. The membrane was washed three times for 10 minutes each with TBST. The secondary antibodies (anti-rabbit IgG and anti-mouse IgG labeled with horseradish peroxidase (HRP)) were diluted in TBST containing 5% non-fat skim milk and reacted with the membrane at room temperature for 1 hour. Upon completion of the reaction, the membrane was washed three times with TBST for 10 minutes each. Protein expression bands were detected by a chemiluminescence image analyzer (Image Quant LAS 500) after the ECL solution was reacted with the NC membrane.
GCN2, a key kinase of the integrated stress response (ISR), is phosphorylated in response to amino acid deficiency.

[3] = biological target: recombinant human PKR protein (Homo sapiens, UniProt P19525); test: Protein kinase R (PKR) inhibitory capacity, 33P-ATP filter assay; assay type: biochemical; settings: 15 uM [gamma-33P-ATP], 40 minutes, room temperature
Sequence of recombinant human PKR protein (P19525 whole entry): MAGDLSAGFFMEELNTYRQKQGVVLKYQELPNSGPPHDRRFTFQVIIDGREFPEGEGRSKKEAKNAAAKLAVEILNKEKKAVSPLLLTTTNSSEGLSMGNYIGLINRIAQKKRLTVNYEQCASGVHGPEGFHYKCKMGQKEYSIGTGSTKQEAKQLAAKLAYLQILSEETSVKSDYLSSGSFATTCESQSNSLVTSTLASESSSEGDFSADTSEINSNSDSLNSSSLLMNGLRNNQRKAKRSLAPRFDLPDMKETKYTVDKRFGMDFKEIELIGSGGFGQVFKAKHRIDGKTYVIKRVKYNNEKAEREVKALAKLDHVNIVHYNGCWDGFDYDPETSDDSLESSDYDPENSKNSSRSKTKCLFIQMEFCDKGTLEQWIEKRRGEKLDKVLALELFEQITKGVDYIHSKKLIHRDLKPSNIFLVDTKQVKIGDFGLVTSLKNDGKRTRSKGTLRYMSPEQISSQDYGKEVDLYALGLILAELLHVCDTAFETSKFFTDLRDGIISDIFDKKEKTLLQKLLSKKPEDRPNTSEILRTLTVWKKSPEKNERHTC
Method: <Experimental Example 4> Evaluation of Protein Kinase R (PKR) Inhibitory Capacity
as §1, with “PKR” for “GCN2”, “(8” for “(20”, “MOPS pH 7.0,” for “Tris/HCl pH8.5,”, “20 uM” for “0.1% Tween, 100 mM NaCl, 300 μM”, “15” for “70”

[4] = biological target: recombinant human HRI protein (Homo sapiens, UniProt Q9BQI3); test: eIF2-alpha kinase heme-regulated inhibitor (HRI) inhibitory capacity, 33P-ATP filter assay; assay type: biochemical; settings: 45 uM [gamma-33P-ATP], 40 minutes, room temperature
Sequence of recombinant human HRI protein (Q9BQI3 whole entry): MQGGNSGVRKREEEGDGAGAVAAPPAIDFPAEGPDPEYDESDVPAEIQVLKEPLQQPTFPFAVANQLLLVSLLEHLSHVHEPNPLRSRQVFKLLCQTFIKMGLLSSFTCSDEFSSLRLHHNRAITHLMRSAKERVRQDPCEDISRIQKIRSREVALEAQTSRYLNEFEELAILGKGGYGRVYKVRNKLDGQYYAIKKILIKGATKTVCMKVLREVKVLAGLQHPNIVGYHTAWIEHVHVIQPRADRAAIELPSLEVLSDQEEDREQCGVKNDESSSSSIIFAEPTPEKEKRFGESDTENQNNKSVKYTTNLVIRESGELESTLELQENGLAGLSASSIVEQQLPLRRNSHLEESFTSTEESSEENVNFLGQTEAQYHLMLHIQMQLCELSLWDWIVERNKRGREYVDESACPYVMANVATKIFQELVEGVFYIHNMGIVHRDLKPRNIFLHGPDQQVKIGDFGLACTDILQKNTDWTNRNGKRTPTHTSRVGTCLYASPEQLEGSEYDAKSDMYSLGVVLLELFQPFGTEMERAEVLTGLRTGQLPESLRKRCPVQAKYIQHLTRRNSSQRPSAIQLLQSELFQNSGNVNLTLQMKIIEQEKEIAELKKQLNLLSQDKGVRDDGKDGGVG
Method: <Experimental Example 3> Evaluation of eIF2-Alpha Kinase Heme-Regulated Inhibitor (HRI) Inhibitory Capacity
A recombinant human HRI protein was mixed with the compound in a reaction solution (50 mM Tris/HCl pH 7.5, 0.04 mM EDTA, 300 uM RSRSRSRSRSRSRSR, 10 mM Magnesium acetate, 45 uM [gamma-33P-ATP]) and reacted at room temperature for 40 minutes. Then, the reaction was terminated by adding phosphoric acid (0.5%) to the reaction mixture, and […] of the reaction solution was dropped onto a P30 filter. The filter was washed four times in a 0.425% phosphoric acid solution for 4 minutes, then […] washed once more in methanol, dried, and the HRI activity was measured by scintillation counting. […] The compound was diluted by 1/3 from the highest concentration of 1 uM and treated with a total of 9 concentrations to evaluate the degree of inhibition.

[5] = biological target: T2, recombinant human PERK protein (Homo sapiens, UniProt Q9NZJ5); test: PKR-like endoplasmic reticulum kinase (PERK) inhibitory capacity, 33P-ATP filter assay; assay type: biochemical; settings: 15 uM [gamma-33P-ATP], 40 minutes, room temperature
T2 sequence (Q9NZJ5 30-1116): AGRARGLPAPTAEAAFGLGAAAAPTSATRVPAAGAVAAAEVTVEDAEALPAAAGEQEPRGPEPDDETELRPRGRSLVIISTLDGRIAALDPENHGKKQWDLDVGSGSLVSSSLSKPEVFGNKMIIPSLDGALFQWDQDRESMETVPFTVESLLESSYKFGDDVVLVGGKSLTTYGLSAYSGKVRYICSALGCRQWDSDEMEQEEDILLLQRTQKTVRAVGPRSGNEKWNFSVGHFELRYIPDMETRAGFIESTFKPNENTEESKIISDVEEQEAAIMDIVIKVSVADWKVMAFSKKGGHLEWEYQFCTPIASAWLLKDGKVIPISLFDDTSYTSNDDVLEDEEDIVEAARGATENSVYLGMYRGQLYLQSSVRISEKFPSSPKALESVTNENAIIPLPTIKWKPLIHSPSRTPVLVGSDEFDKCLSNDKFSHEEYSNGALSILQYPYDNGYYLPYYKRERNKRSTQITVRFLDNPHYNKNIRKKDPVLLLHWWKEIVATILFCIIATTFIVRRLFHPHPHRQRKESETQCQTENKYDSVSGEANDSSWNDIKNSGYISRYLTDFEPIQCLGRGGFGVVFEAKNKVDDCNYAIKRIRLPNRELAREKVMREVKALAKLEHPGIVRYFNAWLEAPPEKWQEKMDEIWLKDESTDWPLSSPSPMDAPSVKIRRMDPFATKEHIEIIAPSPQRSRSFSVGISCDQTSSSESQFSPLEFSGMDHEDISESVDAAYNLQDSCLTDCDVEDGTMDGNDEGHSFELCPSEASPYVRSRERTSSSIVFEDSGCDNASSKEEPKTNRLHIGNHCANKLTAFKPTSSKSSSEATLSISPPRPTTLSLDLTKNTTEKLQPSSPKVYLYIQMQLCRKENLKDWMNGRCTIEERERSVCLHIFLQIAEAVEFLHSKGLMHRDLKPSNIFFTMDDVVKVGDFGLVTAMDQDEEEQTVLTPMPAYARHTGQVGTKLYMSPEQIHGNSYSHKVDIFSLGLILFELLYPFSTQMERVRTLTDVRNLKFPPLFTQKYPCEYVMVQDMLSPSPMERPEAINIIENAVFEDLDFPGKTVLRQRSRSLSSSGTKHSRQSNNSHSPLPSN
Method: <Experimental Example 1> Evaluation of PKR-Like Endoplasmic Reticulum Kinase (PERK) Inhibitory Capacity
A recombinant human PERK protein was mixed with the compound in a reaction solution (8 mM MOPS pH 7.0, 0.2 mM EDTA, 300 uM RSRSRSRSRSRSRSR, 10 mM Magnesium acetate, 15 uM [gamma-33P-ATP]) and reacted at room temperature for 40 minutes. Then, the reaction was terminated by adding phosphoric acid (0.5%) to the reaction mixture, and 10 ul of the reaction solution was dropped onto a P30 filter. The filter was washed four times in a 0.425% phosphoric acid solution for 4 minutes, then washed once more in methanol, dried, and the PERK activity was measured by scintillation counting. […] The compound was diluted by 1/3 from the highest concentration of 1 uM and treated with a total of 9 concentrations to evaluate the degree of inhibition.

Row | IC50 [1] [nM] | inhibitory effect on the phosphorylated GCN2 [2] | Phospho-GCN2 inhibition [2] | IC50 [3] [nM] | IC50 [4] [nM] | IC50 [5] [nM] | Compound
1 | < 100 | excellent inhibitory effect | ◯ |  |  |  | COc1ncc(Cl)cc1S(=O)(=O)Nc1ccc(F)c(-n2ccc3nc(N)ncc3c2=O)c1F [Example 26, N-(3-(2-amino-5-oxopirido[4,3-d]pyrimidin-6(5H)-yl)-2,4-difluorophenyl)-5-chloro-2-methoxypyridine-3-sulfonamide]
2 | < 100 |  |  | > 1000 | 100 to 300 | < 100 | COc1ncc(C#N)cc1S(=O)(=O)Nc1ccc(F)c(-n2ccc3nc(N)ncc3c2=O)c1F [Example 28, N-(3-(2-amino-5-oxopirido[4,3-d]pyrimidin-6(5H)-yl)-2,4-difluorophenyl)-5-cyano-2-methoxypyridine-3-sulfonamide]
3 | 100 to 300 | excellent inhibitory effect |  |  |  |  | Cc1nn(-c2c(F)ccc(NS(=O)(=O)c3c(Cl)nn(C)c3C)c2F)c(=O)c2cnc(N)nc12 [Example 36, N-(3-(2-amino-8-methyl-5-oxopyrimido[4,5-d]pyridazine-6(5H)-yl)-2,4-difluorophenyl)-3-chloro-1,5-dimethyl-1H-pyrazole-4-sulfonamide]
4 | 100 to 300 |  | ◯ |  |  |  | COc1ncc(Cl)cc1S(=O)(=O)Nc1ccc(F)c(-n2nc(C)c3nc(N)ncc3c2=O)c1F [Example 38, N-(3-(2-amino-8-methyl-5-oxopyrimido[4,5-d]pyridazine-6(5H)-yl)-2,4-difluorophenyl)-5-chloro-2-methoxypyridine-3-sulfonamide]
5 | 100 to 300 |  | ◯ |  |  |  | Cc1nn(C)c(C)c1S(=O)(=O)Nc1ccc(F)c(-n2c(=O)c3cnc(N)nc3n(C)c2=O)c1F [Example 48, N-(3-(7-amino-1-methyl-2,4-dioxo-1,4-dihydropyrimido[4,5-d]pyrimidin-3(2H)-yl)-2,4-difluorophenyl)-1,3,5-trimethyl-1H-pyrazole-4-sulfonamide]
6 | 300 to 1000 | excellent inhibitory effect | ◯ |  |  |  | Nc1ncc2c(=O)n(-c3c(F)ccc(NS(=O)(=O)c4cc(Cl)ccc4Cl)c3F)c(=O)n(C3CC3)c2n1 [Example 63, N-(3-(7-amino-1-cyclopropyl-2,4-dioxo-1,4-dihydropyrimido[4,5-d]pyrimidin-3(2H)-yl)-2,4-difluorophenyl)-2,5-dichlorobenzenesulfonamide]
7 | 300 to 1000 | excellent inhibitory effect | ◯ |  |  |  | Nc1ncc2c(=O)n(-c3c(F)ccc(NS(=O)(=O)c4cccc5ccccc45)c3F)c(=O)n(C3CC3)c2n1 [Example 64, N-(3-(7-amino-1-cyclopropyl-2,4-dioxo-1,4-dihydropyrimido[4,5-d]pyrimidin-3(2H)-yl)-2,4-difluorophenyl)naphthalene-1-sulfonamide]
8 | 300 to 1000 | excellent inhibitory effect | ◯ |  |  |  | COc1ncc(Cl)cc1S(=O)(=O)Nc1ccc(F)c(-n2c(=O)c3cnc(N)nc3n(C3CC3)c2=O)c1F [Example 65, N-(3-(7-amino-1-cyclopropyl-2,4-dioxo-1,4-dihydropyrimido[4,5-d]pyrimidin-3(2H)-yl)-2,4-difluorophenyl)-5-chloro-2-methoxypyridine-3-sulfonamide]
